# Test results: patent publication US9168306B2, “Drug delivery agents comprising cyclodextrin covalently linked to a gemini surfactant, and pharmaceutical compositions comprising the same” (University of Saskatchewan, priority 2011, dated 2015)
# Several values for one entry are separate records, joined by “and”; a condition that tells them apart may be missing. Equal values may be shown once.
# Columns and labels:
# [1] = Size and ζ-potential measurement of compositions (Zetasizer Nano ZS); format: physicochemical
# Protocol: Due to their low solubility in water, for the in vitro testing, each drug was dissolved in dimethylsulfoxide (DMSO, Sigma) at 2 mM concentration. The drug was added at increasing concentrations of 0.01-200 μM to the supplemented media with the final DMSO concentration of 2% exposed to the cells. For the formulations, CD or CDgemini was dissolved in water (10 mM) and the drugs were dissolved in methanol (2 mM). The delivery agent to drug mole ratio was maintained at 2:1. The solvent mixture was evaporated in a rotary evaporator under vacuum and the residue was reconstituted in water. Samples were dispersed by sonication for 2 h and stored overnight at 4° C. Samples were re-sonicated, prior to diluting in supplemented media, for 15 min.
# Compositions were prepared as described above. The size and ζ-potential of the particles were measured with a Zetasizer Nano ZS instrument (Malvern Instruments, UK). Results are reported as the mean of 3-5 measurements±standard deviations.
# A375 cells [2] = assay: Flow cytometry cell cycle analysis (propidium iodide); format: cell-based, human; conditions: delivery agent alone as control, 14 μM; 48 h
# Protocol: (§1) A375 cells at the second passage were seeded at a density of 1×10^6 cells per well in 6 well tissue culture-treated plates. Cells were incubated at 37° C. in a humidified incubator with 5% CO2 and 95% air, overnight. […] The resveratrol and sodium butyrate controls were used to calibrate the flow cytometer for cell cycle arrest in the A375 cell. All treatments were performed in triplicate wells. Cells were incubated with the formulations and controls for 48 h. All cells, floating and adherent, were collected, the triplicate wells pooled and washed in PBS. The cell populations were divided into two. Half of the cells was fixed in 70% ethanol for 2 h, washed twice in 300 μg/mL RNase A (Qiagen) in PBS. The cell pellet was resuspended in PBS and stained with propidium iodide, 20 μg/mL (Sigma). The other half of the cells was suspended in binding buffer and stained as per the Annexin V-FITC Apoptosis Detection Kit (BioVision) protocol.
# (§2) Flow cytometry was performed with a FacsCalibur instrument (BD Biosciences). The treatment groups were analyzed using ModFit LT flow cytometry modeling software (Verity Software House, Inc) after gating the area of non-treated cells by excluding aggregates and debris.
# A375 cells [3] = assay: Flow cytometry apoptosis assay (Annexin V-FITC / propidium iodide); format: cell-based, human; conditions: delivery agent alone as control, 14 μM; 48 h
# Protocol: as §1, with “The other half of the cells was suspended in binding buffer and stained as per the Annexin V-FITC Apoptosis Detection Kit (BioVision) protocol.” left out
# as §2
# The type of cell death of the A375 cells after treatment of the compositions was captured by performing the apoptosis assay (as shown in FIG. 7). […] Apoptosis was measured by dual staining of the cells with Annexin V-FITC and propidium iodide. […]
# [4] = Transmission electron microscopy of compositions; format: physicochemical
# Protocol: Drug/CDgemini conjugates prepared for the size measurements were used for TEM. Aliquots of 10 μL samples were dropped onto 300-mesh formvar-coated copper grids (SPI Supplies) and incubated for 5 min at room temperature. The water was wicked off the grids with absorbent tissue and the grids were stained with 1% phosphotungstic acid for 2 min. The stain was removed and the grids were dried at room temperature for 15 min. The samples were examined with a Philips CM10 electron microscope at an accelerating voltage of 80 kV.
# [5] = tested on: a number of cancer cells, including human SK-MEL-5 cells; conditions: literature values; cited from earlier work
SMILES,formation of supramolecular aggregates [1],cells in G0/G1 (A375 cells [2]) [%],cells in S-phase (A375 cells [2]) [%],"apoptosis, of the total population (A375 cells [3]) [%]",Particle size Peak 1 Intensity [1] [%],ζ potential [1],Particle size Peak 1 ([1]; mean of 3-5 measurements ± SD) [nm],PDI ([1]; polydispersity index),size of particles in TEM images [4],cytotoxic concentrations [5] [µM]
"OC[C@H]1O[C@@H]2O[C@H]3[C@H](O)[C@@H](O)[C@@H](O[C@H]4[C@H](O)[C@@H](O)[C@@H](O[C@H]5[C@H](O)[C@@H](O)[C@@H](O[C@H]6[C@H](O)[C@@H](O)[C@@H](O[C@H]7[C@H](O)[C@@H](O)[C@@H](O[C@H]8[C@H](O)[C@@H](O)[C@@H](O[C@H]1[C@H](O)[C@H]2O)O[C@@H]8CO)O[C@@H]7CO)O[C@@H]6CO)O[C@@H]5CO)O[C@@H]4CO)O[C@@H]3CO [CD, β-Cyclodextrin, reference compound]",neither CD nor drug/CD conjugates formed supramolecular aggregates,56,43,25,–,–,–,–,–,–
"CCCCCCCCCCCC[N+](C)(C)CCCN(CCC[N+](C)(C)CCCCCCCCCCCC)C(=O)CCC(=O)OCC1OC2OC3C(CO)OC(OC4C(CO)OC(OC5C(CO)OC(OC6C(CO)OC(OC7C(CO)OC(OC8C(CO)OC(OC1C(O)C2O)C(O)C8O)C(O)C7O)C(O)C6O)C(O)C5O)C(O)C4O)C(O)C3O.[Cl-].[Cl-] (stereo not drawn) [CDgemini, [mono-6-o-(3{bis(3-(N-dodecyl-N,N-dimethylamino)-propyl)-carbamoyl}propanoyl)-beta-cyclodextrin]^2+]",–,65,35,31,100,5.74±0.53 mV and 5.7 ± 0.5 mV,153.6±4.3,0.2,100-150 nm,–
N[C@@H](Cc1ccc(N(CCCl)CCCl)cc1)C(=O)O [melphalan],–,–,–,–,–,–,–,–,–,52 to 219
